Assay results: patent publication EP0275215B1, “Contrast agents for the gastrointestinal tract” (GUERBET S.A., priority 1987, dated 1988)

Key:
[1] = Binding of 153Gd labelled gadolinium complexes, radioactive assay; conditions: total activity of the filtrate as percentage of the original; 12.5mM Gd, 25mM phosphonate where present
Method: The binding of gadolinium complexes was also assayed using ¹⁵³Gd labelled solutions. The particulates were used as suspensions (250mg/ml) and isolated by centrifugation. 0.4ml of a radioactively labelled gadolinium complex was then added and the solid resuspended. After three minutes the solid was filtered through a glass sinter and washed with water (≃10ml). The total activity of the filtrate was measured and expressed as a percentage of the original. The gadolinium concentration of the complex in this assay was 12.5mM and the concentration of phosphonate (where present) was 25mM. A further assay involved the addition of 25mM, and 37.5mM Gd with concomitant increase in the phosphonate concentration.

[2] = Stability of 153Gd labelled adducts in acid solution; assay type: physicochemical; conditions: 5ml 0.2M HCl, 24hrs, percentage of the original activity
Method: The stability of the adducts in acid solution was assayed using ¹⁵³Gd labelled adducts. The adducts were prepared as in the binding assays described previously. 5ml of 0.2M HCl was then added to the adduct which was resuspended and left for 24hrs. The suspensions were then filtered through a glass sinter and washed with 5ml distilled water. The total filtrate was then placed into an ion chamber and the total activity measured.

[3] = Binding of metal complexes to particulate carrier (1H NMR relaxation of supernatant); conditions: to aluminium hydroxide; 0.4ml 50mM metal complex, pH 7.5, 3 minutes
Method: (§1) The particulates used were generally used as suspensions in distilled water for these studies (250mg/ml). The solid from 1ml of particulate solution was isolated by centrifugation and the supernatant removed. 0.4ml of a 50mM metal complex solution at pH = 7.5 was added and the solid resuspended. […] After 3 minutes the solid was isolated by centrifugation washed once by resuspension in distilled water (0.4ml) followed by recentrifugation to isolate the products. The initial supernatant was analysed by ¹H NMR relaxation measurements at 200MHz and the amount of metal complex bound to the particulate calculated.

[4] = as above; conditions: to calcium hydroxide; 0.4ml 50mM metal complex, pH 7.5, 3 minutes
Method: as §1

[5] = as above; conditions: to calcium phosphate basic; 0.4ml 50mM metal complex, pH 7.5, 3 minutes
Method: as §1

[6] = as above; conditions: to calcium phosphate neutral; 0.4ml 50mM metal complex, pH 7.5, 3 minutes
Method: as §1

[7] = as above; conditions: to calcium pyrophosphate; 0.4ml 50mM metal complex, pH 7.5, 3 minutes
Method: (§2) The particulates used were generally used as suspensions in distilled water for these studies (250mg/ml). The solid from 1ml of particulate solution was isolated by centrifugation and the supernatant removed. 0.4ml of a 50mM metal complex solution at pH = 7.5 was added and the solid resuspended. […] After 3 minutes the solid was isolated by centrifugation washed once by resuspension in distilled water (0.4ml) followed by recentrifugation to isolate the products. The initial supernatant was analysed by ¹H NMR relaxation measurements at 200MHz and the amount of metal complex bound to the particulate calculated. The particulates were resuspended at 10 mg/ml and the T1 and T2 relaxation times measured at 10MHz and 37°C.

[8] = as above; conditions: to magnesium hydroxide; 0.4ml 50mM metal complex, pH 7.5, 3 minutes
Method: as §2

[9] = as above; conditions: to magnesium trisilicate; 0.4ml 50mM metal complex, pH 7.5, 3 minutes
Method: as §2

[10] = as above; conditions: to sodium phosphate glass; 0.4ml 50mM metal complex, pH 7.5, 3 minutes
Method: as §2

[11] = as above; conditions: to silica; 0.4ml 50mM metal complex, pH 7.5, 3 minutes
Method: as §2

[12] = as above; conditions: to aluminium phosphate; 0.4ml 50mM metal complex, pH 7.5, 3 minutes
Method: as §1

[13] = as above; conditions: to calcium phosphate ortho; 0.4ml 50mM metal complex, pH 7.5, 3 minutes
Method: The solid from 1ml of particulate solution was isolated by centrifugation and the supernatant removed. 0.4ml of a 50mM metal complex solution at pH = 7.5 was added and the solid resuspended. […] After 3 minutes the solid was isolated by centrifugation washed once by resuspension in distilled water (0.4ml) followed by recentrifugation to isolate the products. The initial supernatant was analysed by ¹H NMR relaxation measurements at 200MHz and the amount of metal complex bound to the particulate calculated.

Molecule | BINDING TO CaPO₄ - RADIOACTIVE ASSAY [1] [%] | BINDING TO CaPYROPHOSPHATE - RADIOACTIVE ASSAY [1] [%] | PERCENTAGE ACTIVITY IN SUPERNATANT ([2]; adduct with Ca₂P₂O₇) [%] | PERCENTAGE ACTIVITY IN SUPERNATANT ([2]; adduct with Ca₃(PO₄)₂) [%] | % Bound [3] [%] | % Bound [4] [%] | % Bound [5] [%] | % Bound [6] [%] | % Bound [7] [%] | % Bound [8] [%] | % Bound [9] [%] | % Bound [10] [%] | % Bound [11] [%] | % Bound [12] [%] | % Bound [13] [%]
[Cl][Gd]([Cl])[Cl] [GdCl₃] | 2.07 | 0.14 | 0.41 | 0.54 | 98 | 99 | 99 | 98 | 68 | 99 | 89 | 48 | 66 | – | –
ferric citrate | – | – | – | – | 80 | 74 | 80 | 68 | 28 | 89 | 50 | 26 | 16 | 18 | 82
[Cl][Fe]([Cl])[Cl] [FeCl₃] | – | – | – | – | 89 | 98 | 96 | 92 | 50 | 96 | 93 | 41 | 46 | 78 | –
